From the supplement of paper PMC10307832

What was measured:
Experiment in all cases: relative viability (nuclei count vs DMSO), 5 days (fraction); higher = more cells survive
[1] = compound: CCN1CCN(c2ccc(Nc3cc(N(C)C(=O)Nc4c(Cl)c(OC)cc(OC)c4Cl)ncn3)cc2)CC1 [BGJ398] + O=C(CCCCCCC(=O)Nc1ccccc1)NO [Vorinostat] (partner 1 µM)
How it was run: (§1)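 Dosing by pin tool came one day after lung cancer cell lines were seeded in 1536-well plates, using either one drug or a fixed anchor-drug dose plus five library-drug doses (not always all listed) in √10 steps. After 5 days, nuclei were counted on 4× images. Relative viability is treated-well nuclei count divided by vehicle-well nuclei count, and values are medians of duplicate plates.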

[2] = compound: C1=CC2=NC=CN=C2C=C1/C=C/3\C(=O)NC(=O)S3 + CC(=O)c1c(C)c2cnc(Nc3ccc(N4CCNCC4)cn3)nc2n(C2CCCC2)c1=O [Palbociclib] (partner 0.5 µM)
How it was run: as §1

[3] = compound: CCN1CCN(c2ccc(Nc3cc(N(C)C(=O)Nc4c(Cl)c(OC)cc(OC)c4Cl)ncn3)cc2)CC1 [BGJ398] + CC(C)C[C@H](NC(=O)[C@H](Cc1ccccc1)NC(=O)c1cnccn1)B(O)O [Bortezomib] (partner 0.002 µM)
How it was run: as §1

[4] = compound: C1=CC2=NC=CN=C2C=C1/C=C/3\C(=O)NC(=O)S3 + C[C@@H](Oc1cc(-c2cnn(C3CCNCC3)c2)cnc1N)c1c(Cl)ccc(F)c1Cl [Crizotinib] (partner 1 µM)
How it was run: as §1

| Cell Line | relative viability ([1]; first compound 0.01 µM) | relative viability ([1]; first compound 0.03162 µM) | relative viability ([1]; first compound 0.1 µM) | relative viability ([1]; first compound 0.3162 µM) | relative viability ([1]; first compound 1 µM) | relative viability ([2]; first compound 0.02 µM) | relative viability ([2]; first compound 0.06325 µM) | relative viability ([2]; first compound 0.2 µM) | relative viability ([2]; first compound 0.6325 µM) | relative viability ([2]; first compound 2 µM) | relative viability ([3]; first compound 0.01 µM) | relative viability ([3]; first compound 0.03162 µM) | relative viability ([3]; first compound 0.1 µM) | relative viability ([3]; first compound 0.3162 µM) | relative viability ([3]; first compound 1 µM) | relative viability ([4]; first compound 0.02 µM) | relative viability ([4]; first compound 0.06325 µM) | relative viability ([4]; first compound 0.2 µM) | relative viability ([4]; first compound 0.6325 µM) | relative viability ([4]; first compound 2 µM) |
| --- | --- | --- | --- | --- | --- | --- | --- | --- | --- | --- | --- | --- | --- | --- | --- | --- | --- | --- | --- | --- |
| NCI-H3122 | 0.99 | 0.991 | 1.01 | 0.996 | 1.2 | 0.204 | 0.213 | 0.173 | 0.194 | 0.186 | 1.04 | 0.998 | 1 | 1.02 | 1.09 | 0.298 | 0.253 | 0.277 | 0.265 | 0.203 |
| PC-3 [JPC-3] | 1.04 | – | 0.52 | – | 0.705 | 0.492 | 0.637 | 0.566 | 0.561 | 0.541 | 0.851 | – | 0.914 | 0.804 | 0.765 | 0.954 | 1.01 | 0.944 | 1.01 | 1.01 |
| PC-14 | 0.722 | 0.121 | 0.818 | – | 0.78 | 0.492 | 0.539 | 0.559 | 0.488 | 0.587 | 0.952 | 0.85 | 0.791 | 0.868 | 0.878 | 0.821 | 0.954 | 0.869 | 0.972 | 0.864 |
| RERF-LC-KJ | 0.668 | 0.643 | 0.765 | 0.727 | 0.539 | 1.04 | 1.12 | 1.05 | 0.994 | 1.15 | 1.06 | 1.17 | 1.2 | 1.31 | 1.18 | 0.547 | 0.927 | 0.864 | 0.837 | 0.753 |
| SK-LU-1 | 0.764 | 0.773 | 0.839 | 0.767 | 0.774 | 0.376 | 0.367 | 0.374 | 0.403 | 0.411 | 1.11 | 1.27 | 1.51 | 1.14 | 1.14 | 0.913 | 1.3 | 0.985 | 0.903 | 1.07 |
| SW 1573 | 0.742 | 0.796 | 0.713 | 0.854 | 0.786 | 0.464 | 0.56 | 0.346 | 0.309 | 0.33 | 0.948 | 1.05 | 0.909 | 0.964 | 0.91 | 0.729 | 0.816 | 0.825 | 0.831 | 0.742 |
